# Measurements reported in PubChem BioAssay AID2060492 (Molecular Pharmacology Branch, DTP, NCI, 2025).
# Tested on: 695427-040-R-J1-PDC complex spheroids, viability percent T/C
# Assay: Anticancer human tumor 695427-040-R-J1-PDC patient-derived colon adenocarcinoma cell line growth inhibition [GQUAD]
# Details: for IC50: curve of first compound; for viability, T/C: stronger effect = lower value
# Method in brief: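 Viability of tumor cells grown as complex spheroids with endothelial and stromal cells, exposed to drug combinations. Top concentration at or near clinical Cmax (else 10 microM), diluted in half-log increments.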
# [1] = second compound 0.0316 µM, first compound 0.0316 µM
# [2] = second compound 0.0316 µM, first compound 0.1 µM
# [3] = second compound 0.0316 µM, first compound 0.316 µM
# [4] = second compound 0.0316 µM, first compound 1 µM
# [5] = second compound 0.0316 µM, first compound 3.16 µM
# [6] = second compound 0.0316 µM, first compound 10 µM
# [7] = second compound 0.1 µM, first compound 0.0316 µM
# [8] = second compound 0.1 µM, first compound 0.1 µM
# [9] = second compound 0.1 µM, first compound 0.316 µM
# [10] = second compound 0.1 µM, first compound 1 µM
# [11] = second compound 0.1 µM, first compound 3.16 µM
# [12] = second compound 0.1 µM, first compound 10 µM
# [13] = second compound 0.316 µM, first compound 0.0316 µM
# [14] = second compound 0.316 µM, first compound 0.1 µM
# [15] = second compound 0.316 µM, first compound 0.316 µM
# [16] = second compound 0.316 µM, first compound 1 µM
# [17] = second compound 0.316 µM, first compound 3.16 µM
# [18] = second compound 0.316 µM, first compound 10 µM
# [19] = second compound 1 µM, first compound 0.0316 µM
# [20] = second compound 1 µM, first compound 0.1 µM
# [21] = second compound 1 µM, first compound 0.316 µM
# [22] = second compound 1 µM, first compound 1 µM
# [23] = second compound 1 µM, first compound 3.16 µM
# [24] = second compound 1 µM, first compound 10 µM
# [25] = second compound 3.16 µM, first compound 0.0316 µM
# [26] = second compound 3.16 µM, first compound 0.1 µM
# [27] = second compound 3.16 µM, first compound 0.316 µM
# [28] = second compound 3.16 µM, first compound 1 µM
# [29] = second compound 3.16 µM, first compound 3.16 µM
# [30] = second compound 3.16 µM, first compound 10 µM
# [31] = second compound 10 µM, first compound 0.0316 µM
# [32] = second compound 10 µM, first compound 0.1 µM
# [33] = second compound 10 µM, first compound 0.316 µM
# [34] = second compound 10 µM, first compound 1 µM
# [35] = second compound 10 µM, first compound 3.16 µM
# [36] = second compound 10 µM, first compound 10 µM
# 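Note: spheroids exposed to compounds for seven days before readout.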
smiles,measurement,setting,value
C=CC(=O)N1CCN(c2nc(=O)n(-c3c(C)ccnc3C(C)C)c3nc(-c4c(O)cccc4F)c(F)cc23)C(C)C1 (stereo unspecified) + Cc1[nH]c2ccc(F)cc2c1-c1nc2c3cccnc3c3ncccc3c2[nH]1,IC50,second compound 0.0316 µM,> 10 µM
same,IC50,second compound 0.1 µM,> 10 µM
same,IC50,second compound 0.316 µM,> 10 µM
same,IC50,second compound 1 µM,> 10 µM
same,IC50,second compound 3.16 µM,> 10 µM
same,IC50,second compound 10 µM,> 10 µM
same,"viability, T/C",[1],108%
same,"viability, T/C",[2],86%
same,"viability, T/C",[3],107%
same,"viability, T/C",[4],83%
same,"viability, T/C",[5],93.2%
same,"viability, T/C",[6],90.2%
same,"viability, T/C",[7],101%
same,"viability, T/C",[8],87.6%
same,"viability, T/C",[9],99.9%
same,"viability, T/C",[10],67.8%
same,"viability, T/C",[11],104%
same,"viability, T/C",[12],106%
same,"viability, T/C",[13],102%
same,"viability, T/C",[14],95.7%
same,"viability, T/C",[15],84.2%
same,"viability, T/C",[16],94.8%
same,"viability, T/C",[17],86.9%
same,"viability, T/C",[18],92.8%
same,"viability, T/C",[19],80.5%
same,"viability, T/C",[20],90%
same,"viability, T/C",[21],79.6%
same,"viability, T/C",[22],101%
same,"viability, T/C",[23],104%
same,"viability, T/C",[24],76.8%
same,"viability, T/C",[25],69%
same,"viability, T/C",[26],77.1%
same,"viability, T/C",[27],81.5%
same,"viability, T/C",[28],86.5%
same,"viability, T/C",[29],90.3%
same,"viability, T/C",[30],86.8%
same,"viability, T/C",[31],73.6%
same,"viability, T/C",[32],81.2%
same,"viability, T/C",[33],86.2%
same,"viability, T/C",[34],82.7%
same,"viability, T/C",[35],81.8%
same,"viability, T/C",[36],69.1%
CC(C)n1c(=O)n(C)c2cnc3cc(F)c(-c4ccc(OCCCN5CCCCC5)nc4)cc3c21 + Cc1[nH]c2ccc(F)cc2c1-c1nc2c3cccnc3c3ncccc3c2[nH]1,IC50,second compound 0.0316 µM,> 10 µM
same,IC50,second compound 0.1 µM,> 10 µM
same,IC50,second compound 0.316 µM,> 10 µM
same,IC50,second compound 1 µM,9.84 µM
same,IC50,second compound 3.16 µM,> 10 µM
same,IC50,second compound 10 µM,7.23 µM
same,"viability, T/C",[1],116%
same,"viability, T/C",[2],92.2%
same,"viability, T/C",[3],116%
same,"viability, T/C",[4],74.3%
same,"viability, T/C",[5],93.5%
same,"viability, T/C",[6],65.4%
same,"viability, T/C",[7],101%
same,"viability, T/C",[8],97.2%
same,"viability, T/C",[9],128%
same,"viability, T/C",[10],91.7%
same,"viability, T/C",[11],94.3%
same,"viability, T/C",[12],58.8%
same,"viability, T/C",[13],102%
same,"viability, T/C",[14],120%
same,"viability, T/C",[15],96.4%
same,"viability, T/C",[16],98.7%
same,"viability, T/C",[17],99.2%
same,"viability, T/C",[18],61.3%
same,"viability, T/C",[19],84.2%
same,"viability, T/C",[20],106%
same,"viability, T/C",[21],111%
same,"viability, T/C",[22],109%
same,"viability, T/C",[23],106%
same,"viability, T/C",[24],49.1%
same,"viability, T/C",[25],86.8%
same,"viability, T/C",[26],85%
same,"viability, T/C",[27],94.8%
same,"viability, T/C",[28],96.2%
same,"viability, T/C",[29],92.2%
same,"viability, T/C",[30],50.3%
same,"viability, T/C",[31],61.7%
same,"viability, T/C",[32],83%
same,"viability, T/C",[33],95.5%
same,"viability, T/C",[34],80.9%
same,"viability, T/C",[35],87.1%
same,"viability, T/C",[36],37.6%
CC1COCCN1c1cc(-c2ccnn2C)c2ccnc(-c3ccn[nH]3)c2n1 (stereo unspecified) + Cc1[nH]c2ccc(F)cc2c1-c1nc2c3cccnc3c3ncccc3c2[nH]1,IC50,second compound 0.0316 µM,0.289 µM
same,IC50,second compound 0.1 µM,0.271 µM
same,IC50,second compound 0.316 µM,0.259 µM
same,IC50,second compound 1 µM,0.136 µM
same,IC50,second compound 3.16 µM,0.0564 µM
same,IC50,second compound 10 µM,0.0697 µM
same,"viability, T/C",[1],86.8%
same,"viability, T/C",[2],63.2%
same,"viability, T/C",[3],47.6%
same,"viability, T/C",[4],42%
same,"viability, T/C",[5],29.8%
same,"viability, T/C",[6],27.2%
same,"viability, T/C",[7],91.9%
same,"viability, T/C",[8],63.6%
same,"viability, T/C",[9],53.3%
same,"viability, T/C",[10],30.3%
same,"viability, T/C",[11],34.9%
same,"viability, T/C",[12],30.4%
same,"viability, T/C",[13],78.5%
same,"viability, T/C",[14],75.5%
same,"viability, T/C",[15],44.7%
same,"viability, T/C",[16],28.5%
same,"viability, T/C",[17],28.5%
same,"viability, T/C",[18],30.1%
same,"viability, T/C",[19],68.5%
same,"viability, T/C",[20],54.5%
same,"viability, T/C",[21],37.5%
same,"viability, T/C",[22],31.8%
same,"viability, T/C",[23],31.4%
same,"viability, T/C",[24],29.7%
same,"viability, T/C",[25],57.8%
same,"viability, T/C",[26],41.7%
same,"viability, T/C",[27],34.2%
same,"viability, T/C",[28],31%
same,"viability, T/C",[29],25.5%
same,"viability, T/C",[30],27.1%
same,"viability, T/C",[31],57.9%
same,"viability, T/C",[32],47.5%
same,"viability, T/C",[33],35.4%
same,"viability, T/C",[34],29.6%
same,"viability, T/C",[35],27.3%
same,"viability, T/C",[36],20.7%
